The text below walks through data of patent US6461613B2, “Methods and compositions for the selective regulation of chorionic prostanoids” (priority 1993, dated 2002).

Assay [1] has as its system human term placenta. Put plainly: Effect of dexamethasone and GnRH on prostanoid release from perifused human term placental explants. In kind it is cell-based. How it is done: Medium 199 (x2) with Earles' Modified Salts, bicarbonate and L-glutamine without phenol red was purchased from Gibco (Chagrin Falls, Ohio). Penicillin, streptomycin, bovine serum albumin and Indomethacin were obtained from Sigma Chemicals (St. Louis, Mo.). Placental perifusion was performed essentially as described in Example 3.
Samples were stored at −20° C. until assayed for PGE, PGF, PGFM, Tx B2 or 6-keto-PGF1α. Recovery and stability of these prostanoids in this perifusion system and during storage were assessed by spiking the medium with prostanoids and perifusing it through empty chambers and collecting samples as described above. In addition, samples were frozen and thawed repeatedly and re-assayed. Prostanoid recovery and stability were nearly 100%. Thus, no data correction for procedural losses was done. Radioimmunoassays were performed as described in Example 1.
The perifusion system described at Examples 2 and 3 was used in the present study. […] It took one hour for the input medium to pass through the perifusion tubing and chamber and to be collected in the sample tube. Four replicated chambers were perifused with each of the three experimental media, while, in another four replicated chambers, the perifusion was continued with the control Medium 199.
Hormonal values for a given chamber were normalized to the fifth-hour prostanoid release for that chamber, expressed as a percent release over the fifth-hour release. […] Thus, the release of each chamber was related to functional competence at the time of treatment rather than to its mass.
The mean release for replicate chambers from a given placenta for each particular hormone in the presence of GnRH, dexamethasone, or GnRH and dexamethasone at each point was calculated. Similar calculations were done for the control chambers. The mean data for each treatment for the three different placentas were subjected to statistical analyses. Thus, the response for each placenta was weighed equally. Two-way analysis of variance was used to determine if there was significant main effect or interaction.
In addition, the cumulative release for each hormone from each placenta for each treatment was calculated. One-way analysis of variance was used to test for statistically significant effects of treatment. The points of significant variation were determined using Student-Newman-Keuls' test.

Assay [2] deals with human term placenta. Put plainly: Dose-related action of IGF-I on basal prostanoid production from perifused human term placenta. In kind it is cell-based. Here is the method:
The dose-related effect of IGF-I on placental prostanoids was studied with the perifusion system previously described herein. Normal term deliveries were perifused with a defined Medium 199 containing no phenol red nor exogenous hormonal factors other than 100μU/ml of insulin, estradiol (200 ng/ml), progesterone (4000 ng/ml) and dexamethasone (10^−8). These doses were chosen to emulate the normal term placental environment. Replicate chambers for the control (n=4) and treatment (n=3) explants for each placenta were made. Following a five-hour perifusion at 6 ml/hr with basal media, IGF-I (5, 10, 20, 40 or 80 ng/ml) was added to the triplicate chambers and sample collection continued every 30 minutes for another five hours. The average hormonal response for the replicate chambers of the control and the IGF-I treated explants was calculated and then the mean (±SEM) response for the different placentas with and without treatment was computed and the results compared. […] TxB2 was inhibited at even 10 ng/ml of IGF-I.

For assay [3], the system named is human term placenta. Kind of assay: IGF-I effect on prostanoid and hCG release from perifused human term placental explants. In kind it is cell-based. Here is the method: Term placentas were obtained and processed as described herein. Seven replicate chambers were prepared and each perifused with Medium 199 containing 0.05% BSA, penicillin (100 U/ml), streptomycin (100 μg/ml), estradiol (200 ng/ml), progesterone (2000 ng/ml), dexamethasone (10^−8 M), and insulin (100 μU/ml), at a rate of 6 ml/hour for 10.5 hours. Steroids were first dissolved in ethanol at 10^−4M final concentration and taken to final dilution with BSA-containing medium. This medium is hereafter referred to as Medium 199. These concentrations of steroid were chosen because they are known by those in the obstetrical arts to simulate the intrauterine milieu in vivo in humans. The influx medium was aerated with 95% air and 5% CO2 throughout the perifusion. Perifusion at a rate of 6 ml/hr was performed for […] prior to initiation of sample collection. In this fashion, all tissues were thoroughly washed and equilibrated. Samples were collected every half-hour, beginning at the start of the fourth hour, into 12×75 mm glass tubes containing 0.1 ml indomethacin (1100 μg/ml dimethyl sulfoxide [DMSO]). Collection of the effluent of the seven chambers was done simultaneously, using an ISCO fraction collector Retriever III adapted with a rack having seven tubes and a manifold.
To study the effect of IGF-I on basal prostanoid release, ten minutes prior to the beginning of the fifth hour of the perifusion, Medium 199 in the experimental chambers was changed to Medium 199 containing IGF-I (10^−8 M). This dose of IGF-I was chosen from calculations of the inventor using the Km of the placental receptor for IGF-I. It took ten minutes for the input medium to pass through the perifusion tubing and chamber and to be collected in the sample tube. Three replicated chambers were perifused with experimental medium, whereas, in another four replicated chambers, the perifusion was continued with the control, Medium 199. This experimental design was repeated using placental tissues from three different patients each having a normal pregnancy.
Prostanoid recovery and stability was determined as described in Example 1. Prostanoid radioimmunoassay was also conducted as described in Example 1.
Hormonal values for a given chamber were normalized to the fifth-hour prostanoid or hCG release for that chamber, expressed as a percent release over the fifth-hour release. Because there may be differences in the amount of blood vessels and connective tissue among placental explants, the release expressed per unit weight results in high variance between chambers. […] Thus, the release of each chamber was related to its functional competence at the time of treatment rather than to its mass. The mean release for replicate chambers from a given placenta for each particular hormone in the presence of IGF-I at each time point was calculated and the mean data for each of the three different placentas were averaged at each time point. Thus, each placenta was weighed equally in the statistical analyses. Similar calculations were done for the controls as for the experimental chambers. For each hormone studied, these average normalized data were tested for homogeneity, using Bartlett's test, and if significant deviation was found, the data were log-transformed prior to statistical analysis. Two-way analysis of variance was used to determine if there was significant main effect or interaction.
In addition, the cumulative release for each hormone from each placenta for each treatment was calculated. One-way analysis of variance was used to test for statistical effects of treatment. The points of significant variation were determined using the Student-Newman-Keuls test.

For assay [4] the following is noted: on the order of at least; cited from earlier work.
Assay [5] has as its system human term placenta. Put plainly: Effect of enzyme inhibitors on prostanoid release from perifused human term placental explants (RIA). In kind it is cell-based. The following applies: indomethacin 50 μg/ml. Here is the method: Radioimmunoassays were performed in a fashion similar to what has been previously described (Siler-Khodr et al., 1986, Biol. Reprod., 35:312) which is specifically incorporated herein for this purpose, with specific exception as noted below. A perifusion model (described in Examples 2 and 3) was employed to determine placental cell response. Media collected from the perifusion samples prepared from placental tissues were assayed. […] All the samples from a given perifusion (placenta) were determined in the same assay. At the beginning of the fifth hour of the perifusion, Medium 199 in the experimental chambers was changed to Medium 199 containing quinacrine (10 μM), EDTA (1 mM), NDGA (10 μM) or indomethacin (50 μg/ml). Four replicated chambers were perifused with control medium and each of the experimental media. This experimental design was repeated in three different perifusions using placental tissues from three different patients according to the procedure described in Example 3. […] Term placentas were obtained and placed on ice immediately after vaginal delivery from patients having spontaneous labor and delivery without any known obstetrical or medical complications. Tissues were obtained in accordance with a protocol approved by the Institutional Review Board. Within 30 minutes, the placental tissues were dissected of decidua, chorionic plates and large fetal vessels on ice. The placental tissues were cut into small fragments (approximately 25 pieces having a total weight of approximately 1 g), rinsed free of blood by repeated washing with ice cold normal saline until clear in color, and the tissue fragments placed in a 3-ml tissue chamber, placed in a 37° C. water bath. […] This medium is hereafter referred to as Medium 199. […] Perifusion was performed for two hours prior to initiation of sample collection. In this fashion, all tissues were thoroughly washed and equilibrated. Samples were collected hourly, beginning at the start of the third hour, into 12×75 mm glass tubes containing 0.1 ml indomethacin and 1100 μg/ml dimethyl sulfoxide [DMSO]. It took approximately one hour for the input medium to pass through the perifusion tubing and chamber and to be collected in the sample tube, thus the dead volume of the system was approximately 1 ml. Collection of the effluent of the 20 chambers was done simultaneously, using an ISCO fraction collector Retriever III adapted with a 20-tube rack and manifold. The prostanoid release for a given chamber was expressed as the increase over the fourth-hour prostanoid release for that chamber. Because there may be differences in the amounts of blood vessels and connective tissue among placental explants, the release expressed per unit weight results in high variance between chambers. […] Thus, the release of each chamber was related to its functional competence at the time of treatment rather than its mass. The mean release for replicate chambers from a given placenta for each particular prostanoid in the presence of arachidonic acid or each of the various enzyme inhibitors was calculated and then the mean data for each of the three different placentas was averaged at each time point. Thus, each placenta was weighted equally in the statistical analyses. Two-way analysis of variance of the average response for each prostanoid for each dose of arachidonic acid or each enzyme inhibitor studied, at each time point, was performed. The normalized data were tested for homogeneity using Cohrna's Q test, and no significant deviation was found. Thus, for each prostanoid and each treatment, where there was a significant main effect or interaction, Dunnett's comparison test was applied to determine the point(s) of significant difference as compared to the control. P<0.05 was considered to be statistically significant.

The mark [6] stands for this setting: seven hours of perifusion, dexamethasone 10^−8 M, GnRH 10^−7 M, compared to control.

Ends that are not written are not given here.

Consider “GnRH: gonadotropin-releasing hormone (QHWSYGLRPG; ends and bridges not checked; UniProt P01148 24-33, looked up)”, for which, in the assay with human term placenta [1] (GnRH 10^−7 M, within the first hour, continued throughout perifusion), the “effect on TxB2 release” value is “inhibition”.

In the case of `C[C@@H]1C[C@H]2[C@@H]3CCC4=CC(=O)C=C[C@]4(C)[C@@]3(F)[C@@H](O)C[C@]2(C)[C@@]1(O)C(=O)CO` [dexamethasone], in the assay on human term placenta [1] (dexamethasone 10^−8 M, seventh hour of incubation), the “release as percent of control” value is 68 % of its control release. The “cumulative release of TxB2” value with human term placenta [1] (seven hours of perifusion, dexamethasone 10^−8 M, GnRH 10^−7 M) is on record as 62%±6%. In addition, in the assay on human term placenta [1] (setting [6]), the “cumulative release of 6-keto-PGF1α” value is 73%±7%, the “cumulative release of PGE” value is on record as 66%±4% and the “cumulative release of PGF” value is 71%±4%.

For Insulin like growth factor-I [IGF-I], the “effect on TxB2” value in the assay with human term placenta [2] (IGF-I 10 ng/ml) is listed as “inhibited”. Further, the “effect on PGF production” value in the assay on human term placenta [2] (IGF-I 5-80 ng/ml) is “greatly reduced”. In addition, the “greatest inhibition of TxB2 production” value in the assay with human term placenta [2] (IGF-I 10^−8 M) was 70 % of the basal release. Further, the “effect on TxB2 production” value with human term placenta [2] (IGF-I at each dose (5, 10, 20, 40 or 80 ng/ml)) is “statistically significant inhibition”. Also, the “effect on PGE” value with human term placenta [2] (high dose of IGF-I) is recorded as “small reduction”. Further, the “molar concentration producing a selective pharmacological affect on human placental tissue” value in the assay on human term placenta [2] (on the order of) is reported as ~10^−9 molar. In addition, in the assay with human term placenta [3] (IGF-I 10^−8 M), the “cumulative release of the other hormones studied (PGE, PGFM, 6-keto-PGF1α, hCG) vs control” value is recorded as “no significant change”; the “effect on PGE release” value was “not affected”; the “effect on release of hCG compared to controls” value is on record as “did not affect”; the hCG release was 55 % of the fifth-hour release. Besides, in the assay with human term placenta [3] (IGF-I 10^−8 M treated tissues), the PGE release was 228 % of the fifth-hour release. For the same compound, the “cumulative release of TxB2 vs control” value in the assay with human term placenta [3] (IGF-I 10^−8 M, P<0.01) is given as “significant reduction”. In addition, the “cumulative release of PGF vs control” value in the assay with human term placenta [3] (IGF-I 10^−8 M, P<0.05) was “significant reduction”. The TxB2 release in the assay with human term placenta [3] (IGF-I 10^−8 M, by the fifth hour of treatment) is listed as 85 % of the control's release. The PGF release with human term placenta [3] (IGF-I 10^−8 M, by the fifth hour of treatment, normalized to fifth-hour release) was 116%. Also, the 6-keto-PGF1α release in the assay with human term placenta [3] (IGF-I 10^−8 M, during the five hours) was 146 % of the fifth-hour release. Besides, in the assay with human term placenta [3] (IGF-I 10^−8 M, five hours of perifusion), the “effect on PGFM release” value is given as “unchanged”. Further, in the assay on human term placenta [3] (IGF-I 10^−8 M, following treatment), the “time to significant inhibition of TxB2 release” value is at most 150 min. Besides, the “effect on release of 6-keto-PGF1α” value in the assay on human term placenta [3] (IGF-I 10^−8 M, more than five hours) is given as “not significantly altered”. The “effect on release of PGF” value in the assay with human term placenta [3] (IGF-I 10^−8 M, significant from the third hour) is listed as “significantly (P<0.01) inhibited”.

For `COc1ccc2c(c1)c(CC(=O)O)c(C)n2C(=O)c1ccc(Cl)cc1` [indomethacin], in assay [4], the “molar concentration necessary to produce pharmacological affects” value is “at least 10^−3 molar (M)”. In addition, the PGFM release in the assay on human term placenta [5] (after seven hours of perifusion) is 51.8 % of the release from the control. Moreover, the “PGFM release, effect” value in the assay on human term placenta [5] (after three hours of exposure) is listed as “not inhibited”. Further, in the assay with human term placenta [5] (continued perifusion), the 6-keto-PGF1α release is given as 26.3 % of the control, the PGE release is listed as 24.0 % of the control, the PGF release is recorded as 9.6 % of the control and the TxB2 release is on record as 30.5 % of the control. In the assay with human term placenta [5] (three hours post-exposure), the 6-keto-PGF1α release is on record as 41.3 % of control, the PGE release is 33.5 % of control, the PGF release is reported as 22.1 % of control and the TxB2 release is 42.3 % of control.
